Holding throughout (assay): inhibition of tumour cell growth, NCI panel, 48 h
Assay [1] deals with BT-549 breast.
Assay [2] relates to HOP-62 NSCLC.
In assay [3] the test system is MALME-3M melanoma.
For assay [4], the system named is MCF7 breast.
In assay [5] the test system is MDA-N.
In assay [6] the test system is SF-539 CNS.
Assay [7] concerns SK-MEL-5 melanoma.
The subject of assay [8] is SW-620 colon.
The test system of assay [9] is TK-10 renal.
Assay [10] concerns UACC-257 melanoma.
Assay [11] concerns SNB-75 CNS.

30 molecules from PubChem BioAssay (NCI) can be followed below.

Several values for one entry are separate records, joined by “and”; a condition that tells them apart may be missing. Equal entries are not always repeated.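 These data come from cells grown in 96-well plates and exposed to compound for 48 hours at five concentrations. The concentration for 50% growth inhibition is given as GI50. TGI: concentration producing complete growth inhibition.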

As for `CC(Cc1cccc2c1Nc1ccccc1S2)N(C)CCO` (configuration not stated), the TGI in assay [1], in assay [2], in [3], in assay [4], in [5] and in assay [6] was greater than 100 µM throughout. The TGI in assay [7], in [8], in assay [9] and in assay [10] was greater than 100 µM in each case.

As to `COc1cc(/C=C/C(=O)c2ccc(F)cc2)ccc1OCCCCCOc1cc2c(cc1OC)C(=O)N1CCCC1C=N2` (configuration not stated), the GI50 in assay [1] is 0.0214 µM; in [3], 0.212 µM; in assay [4] it was less than 0.01 µM; in assay [6] it was less than 0.0166 µM; in [7], 0.0896 µM; in assay [11], 0.034 µM. Besides, the GI50 in [9] is 0.123 µM; in assay [10], 0.238 µM. For the same molecule, the TGI in [1] stood at 0.0974 µM; in assay [3] it was 0.439 µM; in assay [4] it was 0.0395 µM; in assay [6], 0.0301 µM; in assay [7], 0.23 µM; in assay [11], 0.187 µM. Further, the TGI in assay [9] amounted to 0.981 µM; in assay [10] it was 1.17 µM.

On to `COc1ccc2[nH]c3c4c(cc(-c5ccccc5)c3c2c1)C(=O)N(c1ccccc1)C4=O`, for which the TGI is greater than 71.3 µM in assay [2]; 65 µM in [3]; 16.5 µM in assay [6]; greater than 100 µM in assay [7]; 37.2 µM in assay [11]; greater than 100 µM in [8]. The TGI in assay [9] and in assay [10] was greater than 100 µM in each case.

Take `O=C(Cc1ccccc1)N/N=C(/c1nc2ccc([N+](=O)[O-])cc2[nH]c1=O)C(O)c1ccc(C(O)/C(=N/NC(=O)Cc2ccccc2)c2nc3ccc([N+](=O)[O-])cc3[nH]c2=O)cc1` (configuration not stated): the TGI in assay [2], in [3], in assay [6], in assay [11], in assay [8] and in assay [9] was greater than 100 µM throughout. Further, the TGI in assay [10] is greater than 100 µM.

With `O=C1Oc2cc3c(c4cccc1c24)OCN(c1ccccc1)C3`, the TGI in assay [2], in assay [3], in assay [7], in assay [11], in assay [8] and in assay [9] was greater than 100 µM throughout. Moreover, the TGI in assay [10] is greater than 100 µM.

Regarding `CO[C@H]1O[C@@H]2OC3(C)CCC4[C@H](C)CCC([C@H]1C)[C@]42OO3` (some centres not stated), the TGI in assay [2], in [3], in assay [5], in assay [6], in assay [7] and in assay [11] was greater than 100 µM in each case. The TGI in [8] and in assay [10] was greater than 100 µM each time.

For `CC(=O)Oc1ccc(Nn2c3ccccc3c3ccccc32)c(C)c1`, the TGI in assay [2] was greater than 100 µM; in [3], greater than 100 µM; in assay [7], greater than 100 µM; in [8], 79.9 µM; in assay [9] it was greater than 100 µM; in [10], greater than 100 µM.

With `O=[N+]([O-])c1ccc(CN=C2NNS(=O)(=O)c3ccccc32)cc1`, the TGI in assay [3], in assay [6], in [7], in assay [8] and in assay [10] was greater than 100 µM each time.

Turning to `O=C(Oc1c(Br)cc(Br)cc1C(=O)Oc1ccccc1)C(=O)Oc1c(Br)cc(Br)cc1C(=O)Oc1ccccc1`, the TGI in [1] came to 52 µM; in [2], 45.1 µM; in assay [3], 59.2 µM; in assay [4], 60.8 µM; in [5], 81.3 µM; in assay [6], 51.8 µM. Also, the TGI in assay [7] is 31 µM; in [8] it was 51.1 µM; in [9], greater than 100 µM; in assay [10] it was greater than 100 µM.

On to `Cc1ccc(C(=O)N2CCCCC2)cc1N=NN(C)C`, for which the TGI in [2], in assay [3], in assay [6], in assay [7], in [11] and in assay [8] was greater than 100 µM throughout. In addition, the TGI in assay [9] and in assay [10] was greater than 100 µM in each case.

Turning to `CN1CCN(c2ccc3[nH]c(C4=C(O)C(=O)[C@@H]5C(=C4O)N=C(CO)N5C)nc3n2)CC1`, the TGI in assay [1], in assay [2], in assay [3], in [6], in assay [11] and in assay [8] was greater than 100 µM in each case. The TGI in assay [10] is greater than 100 µM.

Consider `CCC(c1ccc(OC)cc1)C1NC(=S)NC1=O` (configuration not stated), for which the TGI in assay [2], in assay [3], in assay [4], in [5], in [6] and in assay [7] was greater than 50 µM throughout. The TGI in [11], in assay [8], in assay [9] and in [10] was greater than 50 µM each time.

Regarding `CN1c2ccccc2C(=O)NC12CCNCC2`, the TGI in assay [2], in assay [3], in assay [4], in assay [6], in assay [7] and in [11] was greater than 100 µM throughout. For the same molecule, the TGI in assay [8], in [9] and in assay [10] was greater than 100 µM throughout.

As to `CCCCCC#COC1CC(C)CC[C@@H]1C(C)C` (some centres not stated), the TGI was greater than 100 µM in assay [2]; greater than 100 µM in assay [3]; greater than 100 µM in [6]; greater than 100 µM in assay [7]; greater than 100 µM in assay [11]; 34.1 µM in assay [8]. The TGI in [9] and in assay [10] was greater than 100 µM in each case.

For the molecule `S=C(Nc1ccc2c(c1)oc1ccccc12)c1cccs1`, the TGI in assay [1], in assay [2], in [4], in assay [5], in assay [6] and in assay [7] was greater than 100 µM each time. Also, the TGI in [8], in [9] and in assay [10] was greater than 100 µM in each case.

Consider `O=C(CCN1CCC(CCO)CC1)Nc1ccc2c(c1)C(=O)c1ccc(NC(=O)CCN3CCC(CCO)CC3)cc1C2=O`, for which the TGI in assay [2] is 37.5 µM; in [3], 28.6 µM; in assay [6], 19.4 µM; in assay [7] it was greater than 100 µM; in assay [11], 64.2 µM; in [8] it was 29.1 µM. For the same molecule, the TGI in [9] and in [10] was greater than 100 µM in each case.

Consider `COC1=CC(=O)c2c(cc3c(c2O)-c2c(OC)cc4cc5c(c(O)c4c2OC(=O)CC(C)(O)C3)C(=O)CC(C)(O)C5)C1=O` (configuration not stated), for which the TGI in [2] was 2.76 µM; in [3], 4.04 µM; in assay [6] it was 3.67 µM; in assay [7] it was 0.606 µM; in [11] it was 3.51 µM; in assay [8], 6.3 µM. Besides, the TGI in [9] amounted to 14.2 µM; in assay [10], 5.34 µM.

Regarding `O=C1C=CC(=O)c2cc(Sc3ccccc3)c(=O)c(Sc3ccccc3)cc21`, the TGI in assay [2], in assay [6], in [7], in [11], in [8] and in assay [9] was greater than 100 µM throughout. Further, in [10], the TGI was greater than 100 µM.

For the molecule `C/C(=N\O)C1CC2C=C(C#N)C1N(Cc1ccccc1)C2` (configuration not stated), the TGI in assay [2], in assay [3], in assay [4], in assay [5], in [6] and in [7] was greater than 100 µM in each case. Moreover, the TGI in assay [11], in assay [8], in assay [9] and in assay [10] was greater than 100 µM in each case.

For `CSC1=C(C#N)C(=O)N(c2ccc(C)cc2)C(=O)C1C#N` (configuration not stated), the TGI in [1], in assay [2], in assay [3], in assay [4], in assay [5] and in assay [6] was greater than 100 µM throughout. Besides, the TGI in assay [7], in assay [8], in assay [9] and in assay [10] was greater than 100 µM in each case.

Consider `CC(C)OC(=O)NNc1cccc(Cl)c1`, for which the TGI in assay [2], in assay [3], in [4], in assay [5], in assay [6] and in assay [7] was greater than 100 µM throughout. The TGI in [11], in assay [8], in [9] and in assay [10] was greater than 100 µM each time.

On to `COc1ccc(NS(=O)c2c(C)cc(C)cc2C)cc1` (configuration not stated), for which the TGI in [1] was greater than 100 µM; in assay [2] it was greater than 100 µM; in assay [3], 49 µM; in assay [4] it was greater than 100 µM; in [5], greater than 100 µM; in assay [6], 53.3 µM. The TGI in [7] was 92.1 µM; in assay [8] it was greater than 100 µM; in [9], greater than 100 µM; in assay [10], greater than 100 µM.

On to `Oc1c(Cl)c(Cl)c(O)c(CCNc2nccs2)c1Cl`, for which the TGI in assay [2] was determined as 40.7 µM; in assay [3], 54.9 µM; in [4], 10.2 µM; in assay [6], 4.14 µM; in assay [7], 8.71 µM; in [11] it was 42.3 µM. For the same molecule, the TGI in assay [8] turned out to be 7.72 µM; in [9] it was 33 µM; in [10], 58.7 µM.

On to `CC1=NC=C(O)c2ccccc2O1`, for which the TGI in [2], in assay [3], in assay [6], in assay [8], in [9] and in assay [10] was greater than 100 µM throughout.

Take `O=C(O)C1=CN(c2ccncc2)C(c2ccco2)=CC1c1ccccc1[N+](=O)[O-]` (configuration not stated): the TGI in assay [1] was 26.9 µM; in assay [2] it was 32.9 µM; in assay [3], 26.4 µM; in assay [4] it was 10.7 µM; in [6], 10.3 µM; in assay [7], greater than 49.6 µM. Besides, the TGI is 22.1 µM in assay [11], greater than 31.7 µM in [8], 15.9 µM in assay [9] and 5.35 µM in assay [10].

For `CC1(C)SCc2nc3ccccc3n21`, the TGI in [2], in [3], in assay [4], in [5], in assay [6] and in [7] was greater than 100 µM each time. Besides, the TGI in [11] is 3.56 µM; in [8], greater than 100 µM; in [9], greater than 100 µM; in [10], greater than 100 µM.

In the case of `C=CC(=O)NCNC(=O)C=C`, the TGI in [2], in [3], in [6], in [7], in [11] and in [8] was greater than 100 µM each time. The TGI in [9] and in assay [10] was greater than 100 µM in each case.

Consider `Nc1nc(N)c2ncn(-c3ccccc3)c2n1`, for which the TGI in [1], in assay [2], in assay [3], in [4], in assay [5] and in [6] was greater than 100 µM throughout. The TGI in assay [7], in [8], in assay [9] and in assay [10] was greater than 100 µM throughout. Moreover, in [6], the GI50 is > 100 µM and 49.2 µM.

For the molecule `COC(=O)[C@@H](OC(C)=O)[C@@H](OC(C)=O)c1nnc2ccc(Cl)nn12`, the TGI in assay [1], in assay [2], in [3], in assay [4], in assay [5] and in assay [6] was greater than 100 µM throughout. In addition, the TGI in assay [7], in assay [8], in assay [9] and in [10] was greater than 100 µM each time.

Regarding `O=C1CCCC2=C1CC1=C(CCCC1=O)N2c1ccc([N+](=O)[O-])cc1`, the TGI in [1], in [4], in [6], in [7], in assay [11] and in [8] was greater than 100 µM in each case. The TGI in [9] is greater than 100 µM.
